Source: patent US11191811B2, “Osteocalcin as a treatment for frailty associated with aging” (THE TRUSTEES OF COLUMBIA UNIVERSITY IN THE CITY OF NEW YORK, priority 2014, dated 2021)
Read-outs that look alike come from different tables or passages of the source.

Key:
gamma-carboxylase = target: T1, gamma-carboxylase (Homo sapiens, UniProt P38435); conditions: thiol-specific inhibitors; cited from earlier work
T1 sequence (P38435 1-758): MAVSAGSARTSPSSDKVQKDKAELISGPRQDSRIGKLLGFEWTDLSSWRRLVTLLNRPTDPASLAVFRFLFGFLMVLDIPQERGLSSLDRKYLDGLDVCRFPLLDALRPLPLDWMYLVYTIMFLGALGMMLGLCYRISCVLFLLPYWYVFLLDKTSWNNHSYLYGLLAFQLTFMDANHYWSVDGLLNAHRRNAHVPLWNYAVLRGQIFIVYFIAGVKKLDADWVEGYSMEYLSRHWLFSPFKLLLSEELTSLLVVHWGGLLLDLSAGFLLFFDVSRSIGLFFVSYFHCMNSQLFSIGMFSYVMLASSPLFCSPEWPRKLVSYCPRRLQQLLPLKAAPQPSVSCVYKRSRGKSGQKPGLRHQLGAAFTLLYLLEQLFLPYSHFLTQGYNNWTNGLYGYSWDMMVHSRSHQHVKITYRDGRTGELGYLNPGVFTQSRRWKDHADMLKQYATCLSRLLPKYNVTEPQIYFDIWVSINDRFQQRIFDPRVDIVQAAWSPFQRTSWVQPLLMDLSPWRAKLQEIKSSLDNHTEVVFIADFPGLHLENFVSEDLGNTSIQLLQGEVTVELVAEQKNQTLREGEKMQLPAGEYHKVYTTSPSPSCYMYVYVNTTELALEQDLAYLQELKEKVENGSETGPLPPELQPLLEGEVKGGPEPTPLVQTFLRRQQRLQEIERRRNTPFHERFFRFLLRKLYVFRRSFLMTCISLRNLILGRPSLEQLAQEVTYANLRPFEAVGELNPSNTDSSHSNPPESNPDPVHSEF

osteoblasts = assay: Gene expression in osteoblasts treated with IL-6; format: cell-based
Source text: It was observed that treating osteoblasts with IL-6 decreased expression of Osteocalcin, thereby explaining why the circulating levels of total (carboxylated and uncarboxylated forms) osteocalcin are […] in Il6−/− mice. More importantly, IL-6 increased the expression in osteoblasts of Rankl, a cytokine that favors osteoclast differentiation and decreased the expression of Osteoprotegerin (Opg), a decoy receptor for Rankl and an inhibitor of bone resorption (Karsenty and Wagner, 2002, Developmental Cell 2:389-406; Palmqvist et al., 2002, J. Immunol. 169:3353-3362). This observation is consistent with the fact that the circulating levels of the undercarboxylated and active form of osteocalcin are decreased in Il6−/− mice (FIG. 29E). The regulation of Il-6 expression by osteocalcin signaling in myofibers and of bone resorption by IL-6 also explains why circulating levels of CTX, a biomarker of bone resorption, were low after exercise in Il6−/− and Gprc6aMck−/− mice (FIG. 29G-H). These experiments reveal the existence of a feed-forward regulation between osteocalcin production in bone and IL-6 synthesis in muscle that is necessary for the increase in muscle function during exercise. This regulatory loop should synergize with the ability of IL-6 to favor liver gluconeogenesis and lipolysis, since these two other functions of IL-6 increase the pool of nutrients made available for myofibers during exercise.
Serum osteocalcin, PINP, CTX, and insulin levels were measured using ELISA assays. Blood glucose level was measured using an Accu-Check glucometer. Urine 3-MHT was measured as previously described (Aranibar et al., 2011, Anal. Biochem. 410:84-91). Determination of cAMP accumulation was performed using a commercial kit (R&D). For gene expression, 1 μg of total RNA was reverse transcribed into cDNA. qPCR analyses were performed using a SYBER green master mix (Applied Biosciences) and a CFX-Connect real time PCR (Bio-Rad). Relative expression levels of each gene were normalized to that of Hprt or Gapdh. For in situ hybridization, muscle was frozen in liquid N2-cooled methylbutane. Samples were sectioned at 10 μm using a cryostat. In situ hybridization was performed with a DIG-labeled riboprobe as previously described (Oury et al., 2011, Cell 144:796-809).

CCN1C(=O)C=CC1=O [N-ethylmaleimide]
gamma-carboxylase enzyme activity (gamma-carboxylase): inhibited

O=C([O-])c1cc[c]([Hg][OH])cc1 [pHMB, p-hydroxymurcuribenzoate]
gamma-carboxylase enzyme activity (gamma-carboxylase): inhibited

IL-6: interleukin-6 (IL-6), a myokine whose circulating levels raise during exercise
expression of Osteocalcin in osteoblasts (osteoblasts): decreased
expression of Osteoprotegerin (Opg) in osteoblasts (osteoblasts): decreased
expression of Rankl in osteoblasts (osteoblasts): increased
expression of Osteocalcin in osteoblasts (osteoblasts; listed as interleukin-6): inhibits
expression of Rankl in osteoblasts (osteoblasts; listed as interleukin-6): stimulating
